# According to EP1285919A1, “C10 Carbonate substituted taxanes as antitumor agents” (Florida State University Research Foundation, Inc., priority 2001, dated 2003):
# Where two headings read alike, the source gives them in different places.
# Experiments:
# [1] = system: A2780 Human Ovarian Carcinoma Xenografts; assay: In vivo evaluation against A2780 ovarian carcinoma xenografts; design: species or system NCr-nude mice; Mean Score: scale not given here; details: for MDS (n): 2.0 g endpoint
# Description: In Vivo Evaluation of Antitumor Compounds Against A2780 Human Ovarian Carcinoma Xenografts
# The A2780 group mean size range was 237-243 mg. Dosing was initiated on Day 1. […] Treatment groups are detailed in Table 5.
# [2] = system: VM46 Human Colon Carcinoma; assay: In vivo evaluation against VM46 colon carcinoma xenografts; design: species or system NCr-nude mice; Mean Score: scale not given here
# Description: In Vivo Evaluation of Antitumor Compounds Against VM46 Human Colon Carcinoma
# The VM46 tumor group mean size range was 181-188 mg. Dosing was initiated on Day 1. […] Taxotere was given i.v. at a dose of 70 mg/kg on a qd x 1 schedule. […] The study was terminated on Day 64. Treatment groups are detailed in Table 11.
# HCT116 = assay: In vitro cytotoxicity, cell colony formation assay; assay type: cell-based; details: read-out: IN VITRO ID 50
# Description: In Vitro cytotoxicity measured by the cell colony formation assay
# Four hundred cells (HCT116) were plated in 60 mm Petri dishes containing 2.7 mL of medium (modified McCoy's 5a medium containing 10% fetal bovine serum and 100 units/mL penicillin and […] streptomycin). The cells were incubated in a CO2 incubator at 37 °C for 5 h for attachment to the bottom of Petri dishes. The compounds identified in Example 2 were made up fresh in medium at ten times the final concentration, and then 0.3 mL of this stock solution was added to the 2.7 mL of medium in the dish. The cells were then incubated with drugs for 72 h at 37 ° C. At the end of incubation the drug-containing media were decanted, the dishes were rinsed with 4 mL of Hank's Balance Salt Solution (HBSS), 5 mL of fresh medium was added, and the dishes were returned to the incubator for colony formation. The cell colonies were counted using a colony counter after incubation for 7 days.
# [3] = system: A375 Human Melanoma Xenografts; assay: In vivo evaluation against A375 melanoma xenografts
# Description: In Vivo Evaluation of Antitumor Compounds Against A375 Human Melanoma Xenografts
# Antitumor compounds were prepared in a vehicle of 5% ethanol, 5% Cremophor and 90% isotonic saline in the manner as described for Solution 1 of Example 10. Taxol (paclitaxel; Bristol Meyers Squibb) and Taxotere (docetaxel; Rhône-Poulenc Rorer) were obtained as the marketed pharmaceutical drugs. The dosing volume was 0.3 ml per 20 g mouse.
# Female NCr-nude mice were implanted subcutaneously with 1 mm^3 A375 melanoma fragments in the flank were sorted into treatment groups of six mice each, except the Taxotere treatment group which was a group of seven mice. […] Dosing was initiated on Day 1. The antitumor compounds were given i.v. at an estimated maximum tolerated dose (MTD) appropriate for each agent on a qd x 1 schedule (single administration of compound). The i.v. taxol was given on the qd x 1 schedule as two split doses (one hour between) of 12 mg/kg per split dose (total dose = 24 mg/kg). Taxol was also administered i.p. on a qd x 5 schedule at a daily dose of 18 mg/kg. Taxotere was given i.v. on a qd x 1 schedule at a dose of 70 mg/kg. The vehicle was administered i.v. to control mice in Group 1 on the qd x 1 schedule. The study was terminated on Day 60. Treatment groups are detailed in Table 7.
# The results are summarized in Table 8 and include mean days of survival (MDS), number of toxic deaths, number of survivors, number of complete or partial responses, and number with stable disease. The mean days of survival is the number of days after which a neoplasm reached a size of 2.0 g and the animal was euthanized. A complete response is obtained […].
# [4] = 1781 i.v. qd x 1 at estimated MTD
# [5] = Group 4: 60.6 mg/kg i.v. qd x 1, 5 mice, study to Day 60
# [6] = Group 4: 60 mg/kg i.v. qd x 1, 6 mice, study to Day 64
# [7] = Group 4: 72.6 mg/kg i.p. qd x 1, 6 mice, study to Day 60
# [8] = Group 2: 24 mg/kg i.v. qd x 1 (two split doses of 12 mg/kg), 5 mice, study to Day 60
# [9] = Group 3: 15 mg/kg i.p. qd x 5, 5 mice, study to Day 60
# [10] = i.v. qd x 1, Taxol 24 mg/kg, Taxotere 70 mg/kg
# [11] = i.v. qd x 1, Taxol 24 mg/kg, Taxotere 70 mg/kg, 2.0 g cut-off
# [12] = Group 2: 24 mg/kg i.v. qd x 1 (two split doses of 12 mg/kg), 6 mice, study to Day 64
# [13] = Group 3: 15 mg/kg i.p. qd x 5, 6 mice, study to Day 64
# [14] = Group 2: 24 mg/kg i.v. qd x 1 (two split doses of 12 mg/kg), 6 mice, study to Day 60
# [15] = Group 3: 18 mg/kg i.p. qd x 5, 6 mice, study to Day 60
smiles,measurement,setting,value
CCOC(=O)O[C@H]1C(=O)[C@@]2(C)[C@H]([C@H](OC(=O)c3ccccc3)[C@]3(O)C[C@H](OC(=O)[C@H](O)[C@H](C=C(C)C)NC(=O)OC(C)(C)C)C(C)=C1C3(C)C)[C@]1(OC(C)=O)CO[C@@H]1C[C@@H]2O [Compound 1781],total response rate,[1]; [4],at least 20%
same,partial responses,"[1]; 1781 i.v. qd x 1 at estimated MTD, five mice treated",2
same,MDS (n),"[1]; Group 4: 60.6 mg/kg i.v. qd x 1, 5 mice, n=2, study to Day 60",38.5 ± 8.3 (2) days
same,Complete Response,[1]; [5],0
same,Mean Score,[1]; [5],6 ± 1.3
same,Partial Response,[1]; [5],2
same,Stable Disease,[1]; [5],1
same,Survivors,[1]; [5],3
same,Toxic Deaths,[1]; [5],0
same,Toxic Deaths,"[2]; 1781 i.v. qd x 1, six mice",no toxic deaths
same,response rate,[2]; [4],16.7%
same,MDS (n),"[2]; Group 4: 60 mg/kg i.v. qd x 1, 6 mice, n=5, 1.5 g endpoint, study to Day 64",42.2 ± 7.1(5) days
same,Complete Response,[2]; [6],0
same,Mean Score,[2]; [6],3 ± 1.2
same,Partial Response,[2]; [6],1
same,Stable Disease,[2]; [6],0
same,Toxic Deaths,[2]; [6],0
same,tolerability,"[2]; mouse, in vivo, iv",well-tolerated
same,IC50,"HCT116; HCT116, 72 h with drug, colonies counted after 7 days, concentration producing 50% inhibition of colony formation",< 1 nM
same,Toxic Deaths,"[3]; 1781 i.v. qd x 1 at estimated MTD, six mice",five
same,Complete Response,[3]; [7],0
same,Mean Score,[3]; [7],0.5 ± 0.5
same,Partial Response,[3]; [7],0
same,Stable Disease,[3]; [7],0
same,Survivors,[3]; [7],0
same,Toxic Deaths,[3]; [7],5
same,mean group weight losses,"[3]; mouse, in vivo, iv",20-30%
CC(=O)O[C@H]1C(=O)[C@@]2(C)[C@H]([C@H](OC(=O)c3ccccc3)[C@]3(O)C[C@H](OC(=O)[C@H](O)[C@@H](NC(=O)c4ccccc4)c4ccccc4)C(C)=C1C3(C)C)[C@]1(OC(C)=O)CO[C@@H]1C[C@@H]2O [Taxol],MDS (n),"[1]; Group 2: 24 mg/kg i.v. qd x 1 (two split doses of 12 mg/kg), 5 mice, n=5, study to Day 60",21.9 ± 5.5 (5) days
same,Complete Response,[1]; [8],0
same,Mean Score,[1]; [8],1.8 ± 0.4
same,Partial Response,[1]; [8],0
same,Stable Disease,[1]; [8],0
same,Survivors,[1]; [8],1
same,Toxic Deaths,[1]; [8],0
same,Complete Response,[1]; [9],0
same,Mean Score,[1]; [9],0.6 ± 0.6
same,Partial Response,[1]; [9],0
same,Stable Disease,[1]; [9],0
same,Survivors,[1]; [9],0
same,Toxic Deaths,[1]; [9],4
same,mice succumbed to drug-related side effects,"[1]; Taxol 15 mg/kg i.p. qd x 5, five mice",four
same,increase in survival / survival extension compared to Group 1 controls,[1]; [10],87%
same,MDS,[1]; [11],21.9 days
same,Stable Disease,"[1]; number of animals, Taxol 24 mg/kg i.v. qd x 1, Day 61",One
same,MDS (n),"[2]; Group 2: 24 mg/kg i.v. qd x 1 (two split doses of 12 mg/kg), 6 mice, n=4, 1.5 g endpoint, study to Day 64",43.3 ± 3.7 (4) days
same,Complete Response,[2]; [12],0
same,Mean Score,[2]; [12],3.8 ± 1.4
same,Partial Response,[2]; [12],1
same,Stable Disease,[2]; [12],1
same,Toxic Deaths,[2]; [12],0
same,MDS (n),"[2]; Group 3: 15 mg/kg i.p. qd x 5, 6 mice, n=2, 1.5 g endpoint, study to Day 64",36.1 ± 12.2(2) days
same,Complete Response,[2]; [13],0
same,Mean Score,[2]; [13],1.8 ± 1.3
same,Partial Response,[2]; [13],1
same,Stable Disease,[2]; [13],0
same,Toxic Deaths,[2]; [13],3
same,mortalities,"[2]; Taxol 15 mg/kg i.p. qd x 5, six treated animals",three
same,MDS,"[2]; i.v. qd x 1, Taxol 24 mg/kg (four mice), Taxotere 70 mg/kg, 1.5 g endpoint",43.3 days
same,Stable Disease,"[2]; number of cases, Taxol 24 mg/kg i.v. qd x 1, six mice",one
same,Partial Response,"[2]; number of mice, Taxol 24 mg/kg i.v. qd x 1, six mice",one
same,IC50,"HCT116; Homo sapiens, HCT-116",2.1 nM
same,MDS (n),"[3]; Group 2: 24 mg/kg i.v. qd x 1 (two split doses of 12 mg/kg), 6 mice, n=4, 2.0 g endpoint, study to Day 60",18.1 ± 0.6 (4) days
same,Complete Response,[3]; [14],0
same,Mean Score,[3]; [14],0.8 ± 0.3
same,Partial Response,[3]; [14],0
same,Stable Disease,[3]; [14],0
same,Survivors,[3]; [14],0
same,Toxic Deaths,[3]; [14],2
same,Complete Response,[3]; [15],0
same,Mean Score,[3]; [15],0 ± 0
same,Partial Response,[3]; [15],0
same,Stable Disease,[3]; [15],0
same,Survivors,[3]; [15],0
same,Toxic Deaths,[3]; [15],6
same,animals died of toxicity,"[3]; Taxol 18 mg/kg i.p. qd x 5, six mice",six
same,survival extension compared to Group 1 controls,[3]; [10],26%
same,MDS,[3]; [11],18.1 days
